Assay results published in ChEMBL document CHEMBL5584224, “Recent advances in c-Met-based dual inhibitors in the treatment of cancers” (Eur J Med Chem, 2024).

Legend:
[1] = target: Fibroblast growth factor receptor 1 (Homo sapiens, UniProt P11362); assay: Inhibition of FGFR1 (unknown origin)
[2] = target: Fibroblast growth factor receptor 2 (Homo sapiens, UniProt P21802); assay: Inhibition of FGFR2 (unknown origin)
[3] = target: Fibroblast growth factor receptor 3 (Homo sapiens, UniProt P22607); assay: Inhibition of FGFR3 (unknown origin)
Chain of Fibroblast growth factor receptor 3 (P22607 whole entry): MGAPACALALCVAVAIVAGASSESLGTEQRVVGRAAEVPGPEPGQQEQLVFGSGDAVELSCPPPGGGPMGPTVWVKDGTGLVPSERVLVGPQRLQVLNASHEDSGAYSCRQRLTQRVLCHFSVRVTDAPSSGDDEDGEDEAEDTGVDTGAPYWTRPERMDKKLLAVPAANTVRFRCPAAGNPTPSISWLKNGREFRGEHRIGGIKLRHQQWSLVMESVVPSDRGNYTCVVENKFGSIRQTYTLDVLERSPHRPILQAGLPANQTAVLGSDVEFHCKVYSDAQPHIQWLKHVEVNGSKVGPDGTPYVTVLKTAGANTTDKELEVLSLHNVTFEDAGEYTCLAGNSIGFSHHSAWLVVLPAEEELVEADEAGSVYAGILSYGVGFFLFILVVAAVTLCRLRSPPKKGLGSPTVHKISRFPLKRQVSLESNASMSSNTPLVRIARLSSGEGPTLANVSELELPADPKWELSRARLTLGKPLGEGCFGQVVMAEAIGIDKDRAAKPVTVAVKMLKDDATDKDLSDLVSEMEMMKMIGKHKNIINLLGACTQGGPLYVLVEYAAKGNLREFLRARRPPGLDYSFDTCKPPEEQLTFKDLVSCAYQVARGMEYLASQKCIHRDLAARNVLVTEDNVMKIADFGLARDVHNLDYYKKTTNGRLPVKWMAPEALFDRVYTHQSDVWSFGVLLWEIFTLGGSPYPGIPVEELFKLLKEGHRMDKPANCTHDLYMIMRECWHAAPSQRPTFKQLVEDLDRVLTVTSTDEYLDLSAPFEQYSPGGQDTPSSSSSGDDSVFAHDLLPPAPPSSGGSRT

[4] = system: HepG2; assay: Antitumor activity against human HepG2 cells xenografted in mouse model assessed as tumor growth inhibition at 16 mg/kg/day for 7 days relative to control; format: functional; design: scale not given: the % may be the effect or the level left; conditions: time 7 day
[5] = system: HepG2; assay: Antiproliferative activity against human HepG2 cells assessed as reduction in cell viability incubated for 72 hrs by MTT assay; format: functional, cell-based; conditions: HepG2, 72 h
[6] = system: HepG2; assay: Antitumor activity against human HepG2 cells xenografted in mouse model assessed as tumor growth inhibition at 48 mg/kg/day for 7 days relative to control; format: functional; design: scale not given: the % may be the effect or the level left; conditions: time 7 day

Chain of Fibroblast growth factor receptor 1 (P11362 whole entry): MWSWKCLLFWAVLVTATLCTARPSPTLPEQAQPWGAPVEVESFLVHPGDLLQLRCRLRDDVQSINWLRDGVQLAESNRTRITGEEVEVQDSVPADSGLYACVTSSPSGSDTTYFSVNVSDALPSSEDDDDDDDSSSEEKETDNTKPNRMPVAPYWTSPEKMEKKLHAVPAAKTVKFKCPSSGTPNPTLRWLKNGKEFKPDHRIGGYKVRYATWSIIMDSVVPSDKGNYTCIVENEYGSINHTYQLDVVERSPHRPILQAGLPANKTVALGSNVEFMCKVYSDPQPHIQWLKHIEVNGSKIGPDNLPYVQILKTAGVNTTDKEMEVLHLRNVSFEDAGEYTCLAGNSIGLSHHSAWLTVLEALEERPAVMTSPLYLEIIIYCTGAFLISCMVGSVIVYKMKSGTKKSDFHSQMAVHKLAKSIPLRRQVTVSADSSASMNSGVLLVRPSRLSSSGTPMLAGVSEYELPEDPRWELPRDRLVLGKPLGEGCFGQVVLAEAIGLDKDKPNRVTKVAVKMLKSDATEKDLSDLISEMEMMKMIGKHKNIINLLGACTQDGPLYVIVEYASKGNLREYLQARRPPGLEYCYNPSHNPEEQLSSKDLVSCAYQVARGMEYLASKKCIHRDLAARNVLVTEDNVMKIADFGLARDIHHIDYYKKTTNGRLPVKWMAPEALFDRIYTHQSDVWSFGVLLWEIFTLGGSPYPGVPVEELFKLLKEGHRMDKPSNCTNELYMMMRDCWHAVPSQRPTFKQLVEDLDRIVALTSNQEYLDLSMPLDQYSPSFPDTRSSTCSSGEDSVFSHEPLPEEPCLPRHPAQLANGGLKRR
Chain of Fibroblast growth factor receptor 2 (P21802 whole entry): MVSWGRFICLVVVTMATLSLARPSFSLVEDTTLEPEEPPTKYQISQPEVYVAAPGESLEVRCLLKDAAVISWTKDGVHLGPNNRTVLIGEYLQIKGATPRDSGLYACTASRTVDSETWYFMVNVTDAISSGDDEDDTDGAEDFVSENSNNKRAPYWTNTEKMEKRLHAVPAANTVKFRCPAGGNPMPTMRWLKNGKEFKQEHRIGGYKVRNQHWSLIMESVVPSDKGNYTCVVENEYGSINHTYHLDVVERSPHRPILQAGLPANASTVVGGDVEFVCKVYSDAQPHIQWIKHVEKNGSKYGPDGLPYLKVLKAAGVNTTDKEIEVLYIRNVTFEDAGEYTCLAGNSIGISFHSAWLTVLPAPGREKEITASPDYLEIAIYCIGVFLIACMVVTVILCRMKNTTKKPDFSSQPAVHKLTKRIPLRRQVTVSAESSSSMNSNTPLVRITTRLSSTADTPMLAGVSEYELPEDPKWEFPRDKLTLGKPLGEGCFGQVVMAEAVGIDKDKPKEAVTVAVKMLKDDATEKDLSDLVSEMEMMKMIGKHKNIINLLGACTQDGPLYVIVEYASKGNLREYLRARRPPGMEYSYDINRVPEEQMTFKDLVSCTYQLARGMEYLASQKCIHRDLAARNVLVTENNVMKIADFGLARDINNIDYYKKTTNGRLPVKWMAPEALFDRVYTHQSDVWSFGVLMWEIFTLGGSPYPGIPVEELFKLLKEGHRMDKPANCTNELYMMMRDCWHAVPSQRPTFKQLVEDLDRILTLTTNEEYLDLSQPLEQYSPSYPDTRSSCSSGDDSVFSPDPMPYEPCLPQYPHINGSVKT

Row | Structure (SMILES) | IC50 [1] [nM] | IC50 [2] [nM] | IC50 [3] [nM] | Activity [4] [%] | IC50 [5] [nM] | Activity [6] [%]
1 | O=C1Nc2ccc(CN3C(=O)CSC3=O)cc2/C1=C/c1cc(CN2CCOCC2)c[nH]1 | 18 | 17 | 15 | – | – | –
2 | Cc1ccccc1NS(=O)(=O)c1ccc2c(c1)/C(=C/c1nc3ccccc3[nH]1)C(=O)N2.Cl | – | – | – | 65.2 | 1460 | 65.2
